Measured values as given in patent US20040097594A1 (priority 1998, published 2004).
Like-named read-outs stand apart in the source and are kept apart here.

How the values were obtained:
HIV-1 protease = HIV-1 protease (Human immunodeficiency virus type 1 group M subtype B, UniProt P04585); assay: biochemical
HIV-1 (strain IIIB) = assay: microbe, parasite or virus in culture; assay type: cell-based; details: Human immunodeficiency virus 1, 120 h; MT4 cells infected with HIV-1 strain IIIB, 5 days; lower line of each compound's entry; read-out: IC50 (MT-4 cells)
[1] = HIV-1 protease, upper line of each compound's entry, read-out: Ki (enzyme)

For `O=C(N[C@@H](Cc1ccccc1)[C@H](O)CN(OC1CCCC1)S(=O)(=O)c1cccc(OCC(=O)N2CCOCC2)c1)O[C@H]1CO[C@H]2OCC[C@H]21` [Compound 135, (3R,3aS,6aR)hexahydrofuro[2,3-b]furan-3-yl N-[(1S,2R)-1-benzyl-3-((cyclopentyloxy)[3-(2-morpholino-2-oxoethoxy)phenyl]sulfonylamino)-2-hydroxypropyl]carbamate], the Ki (HIV-1 protease; [1]) was 0.001 to 0.01 µM and the IC50 (HIV-1 (strain IIIB)) was at most 0.1 µM.

`Nc1cccc(S(=O)(=O)N(C[C@@H](O)[C@H](Cc2ccccc2)NC(=O)O[C@H]2CO[C@H]3OCC[C@H]32)OC2CCCC2)c1` (single isomer, unassigned) [Compound 77] was tested, and the Ki (HIV-1 protease; [1]) was under 0.001 µM and the IC50 (HIV-1 (strain IIIB)) was at most 0.1 µM.

`COc1ccc(S(=O)(=O)N(C[C@@H](O)[C@H](Cc2ccccc2)NC(=O)O[C@H]2CCOC2)OC2CCCCC2)cc1` [Compound 64, (3S)tetrahydro-3-furanyl N-((1S,2R)-1-benzyl-3-(cyclohexyloxy)[(4-methoxyphenyl)sulfonyl]amino-2-hydroxypropyl)carbamate] was tested, and the Ki (HIV-1 protease) was under 0.001 µM and the IC50 (HIV-1 (strain IIIB)) was over 1 µM.

`COC(=O)Nc1n[nH]c2ccc(S(=O)(=O)N(C[C@@H](O)[C@H](Cc3ccccc3)NC(=O)OC3COCOC3)OC3CCCC3)cc12` [Compound 104, 1,3-Dioxan-5-yl-N-(1S,2R)-1-benzyl-3-[(cyclopentyloxy)(3-(carbomethoxyamino)-indazole-5-ylsulfonyl)amino]-2-hydroxypropylcarbamate] gave a Ki (HIV-1 protease; [1]) of under 0.001 µM and an IC50 (HIV-1 (strain IIIB)) of at most 0.1 µM.

`CON(C)C(=O)COc1cccc(S(=O)(=O)N(C[C@@H](O)[C@H](Cc2ccccc2)NC(=O)OC2CO[C@H]3OCC[C@@H]23)OC2CCCC2)c1` (stereo partly drawn) [Compound 137, (3R,3aS,6aR)hexahydrofuro[2,3-b]furan-3-yl N-((1S,2R)-1-benzyl-3-(cyclopentyloxy)[(3-2-[methoxy(methyl)amino]-2-oxoethoxyphenyl)sulfonyl]amino-2-hydroxypropyl)carbamate] was tested, and the Ki (HIV-1 protease; [1]) was under 0.001 µM and the IC50 (HIV-1 (strain IIIB)) was at most 0.1 µM.

`Nc1ccc(S(=O)(=O)N(C[C@@H](O)[C@H](Cc2ccccc2)NC(=O)O[C@H]2CO[C@H]3OCC[C@H]32)OC2CCCCC2)cc1` [Compound 153, (3R,3aS,6aR)hexahydrofuro[2,3-b]furan-3-yl(1S,2R)-3-[[(4-aminophenyl)sulfonyl](cyclohexyloxy)amino]-1-benzyl-2-hydroxypropylcarbamate] showed a Ki (HIV-1 protease; [1]) of under 0.001 µM and an IC50 (HIV-1 (strain IIIB)) of at most 0.1 µM.

`COc1ccc(S(=O)(=O)N(C[C@@H](O)[C@H](Cc2ccccc2)NC(=O)OC(C)(C)C)OC2CCCC2)cc1` [Compound 7] was tested, and the Ki (HIV-1 protease) was 0.001 to 0.01 µM and the IC50 (HIV-1 (strain IIIB)) was over 1 µM.

With `O=C(N[C@@H](Cc1ccccc1)[C@H](O)CN(OC1CCCCC1)S(=O)(=O)c1ccc2c(c1)OCCO2)O[C@H]1CO[C@H]2OCC[C@H]21` [Compound 156, (3R,3aS,6aR)hexahydrofuro[2,3-b]furan-3-yl(1S,2R)-1-benzyl-3-[(cyclohexyloxy)(2,3-dihydro-1,4-benzodioxin-6-ylsulfonyl)amino]-2-hydroxypropylcarbamate] the Ki (HIV-1 protease; [1]) was under 0.001 µM and the IC50 (HIV-1 (strain IIIB)) was at most 0.1 µM.

With `CCC(C)ON(C[C@@H](O)[C@H](Cc1ccccc1)NC(=O)OC1COCOC1)S(=O)(=O)c1ccc(OC)cc1` (stereo partly drawn) [Compound 69, 1,3-dioxan-5-yl N-((1S,2R)-1-benzyl-3-sec-butoxy[(4-methoxyphenyl)sulfonyl]amino-2-hydroxypropyl)carbamate] the Ki (HIV-1 protease; [1]) was under 0.001 µM and the IC50 (HIV-1 (strain IIIB)) was 0.1 to 0.5 µM.

`CCC(C)ON(C[C@@H](O)[C@H](Cc1ccccc1)NC(=O)OC1CCOC1)S(=O)(=O)c1ccc(OC)cc1` (stereo partly drawn) [Compound 67, (3S)tetrahydro-3-furanyl N-((1S,2R)-1-benzyl-3-sec-butoxy[(4-methoxyphenyl)sulf-onyl]amino-2-hydroxypropyl)carbamate] gave a Ki (HIV-1 protease; [1]) of under 0.001 µM and an IC50 (HIV-1 (strain IIIB)) of 0.1 to 0.5 µM.

`COc1ccc(S(=O)(=O)N(C[C@@H](O)[C@H](Cc2ccccc2)NC(=O)O[C@H]2CCOC2)OC2CCCC2)cc1` [Compound 47, (3S)tetrahydro-3-furanyl N-((1S,2R)-1-benzyl-3-(cyclopentyloxy)[(4-methoxyphenyl)sulfonyl]amino-2-hydroxypropyl)carbamate] showed a Ki (HIV-1 protease; [1]) of under 0.001 µM and an IC50 (HIV-1 (strain IIIB)) of 0.5 to 1 µM.

`CON(C)C(=O)CNc1cccc(S(=O)(=O)N(CC(O)C(Cc2ccccc2)NC(=O)OC2COC3OCCC23)OC2CCCC2)c1` (mixture of isomers) [Compound 88, (3R,3aS,6aR)hexahydrofuro[2,3-b]furan-3-yl N-[(1S,2R)-1-benzyl-3-((cyclopentyloxy)[3-(2-[methoxy(methyl)amino]-2-oxoethylamino)phenyl]sulfonylamino)-2-hydroxypropyl]carbamate and (3S,3aR,6aS)hexahydrofuro[2,3-b]furan-3-yl N-[(1S,2R)-1-benzyl-3-((cyclopentyloxy)[3-(2[methoxy(methyl)amino]-2-oxoethylamino)phenyl]sulfonylamino)-2-hydroxypropyl]carbamate] gave a Ki (HIV-1 protease; [1]) of under 0.001 µM and an IC50 (HIV-1 (strain IIIB)) of at most 0.1 µM.

`CC(C)ON(C[C@@H](O)[C@H](Cc1ccccc1)NC(=O)OC(C)(C)C)S(=O)(=O)c1ccc2[nH]cnc2c1` [Compound 3] was tested, and the Ki (HIV-1 protease; [1]) was 0.01 to 0.1 µM and the IC50 (HIV-1 (strain IIIB)) was over 1 µM.

Compound `O=C(NC(Cc1ccccc1)C(O)CN(OC1CCCC1)S(=O)(=O)c1cccc(NCCO)c1)OC1COC2OCCC12` [Compound 36, (3R,3aS,6aR)hexahydrofuro[2,3-b]furan-3-yl N-(1S,2R)-1-benzyl-3-[(cyclopentyloxy)(3-[(2-hydroxyethyl)amino]phenylsulfonyl)amino]-2-hydroxypropylcarbamate and (3S,3aR,6aS)hexahydrofuro[2,3-b]furan-3-yl N-(1S,2R)-1-benzyl-3-[(cyclopentyloxy) (3-[(2-hydroxyethyl)amino]phenylsulfonyl)amino]-2-hydroxypropylcarbamate] has a Ki (HIV-1 protease; [1]) of under 0.001 µM and an IC50 (HIV-1 (strain IIIB)) of at most 0.1 µM.

`O=C(N[C@@H](Cc1ccccc1)[C@H](O)CN(OC1CCCC1)S(=O)(=O)c1ccc2cn[nH]c2c1)OC1CO[C@H]2OCC[C@@H]12` (stereo partly drawn) [Compound 59, (3aS,6aR)Hexahydro[2,3-b]furan-3-yl N-(1S,2R)-1-benzyl-3-[(cyclopentyloxy)(1H-indazol-6-ylsulfonyl)amino]-2-hydroxypropylcarbamate] was tested, and the Ki (HIV-1 protease; [1]) was under 0.001 µM and the IC50 (HIV-1 (strain IIIB)) was at most 0.1 µM.

For `COC(=O)Nc1nc2cc(S(=O)(=O)N(C[C@@H](O)[C@H](Cc3ccccc3)NC(=O)O[C@H]3CCOC3)OC3CCCC3)ccc2[nH]1` [Compound 53, (3S)Tetrahydro-3-furanyl N-(1S,2R)-1-benzyl-3-[(cyclopentyloxy)(2-[(methoxycarbonyl)amino]-1H-benzimidazol-5-ylsulfonyl)amino]-2-hydroxypropylcarbamate], the Ki (HIV-1 protease; [1]) was under 0.001 µM and the IC50 (HIV-1 (strain IIIB)) was at most 0.1 µM.

Work on `O=C(N[C@@H](Cc1ccccc1)[C@H](O)CN(OC1CCCCC1)S(=O)(=O)c1cccc(O)c1)O[C@H]1CO[C@H]2OCC[C@H]21` [Example 159, (3R,3aS,6aR)hexahydrofuro[2,3-b]furan-3-yl(1S,2R)-1-benzyl-3-{(cyclohexyloxy)[(3-hydroxyphenyl)sulfonyl]amino}-2-hydroxypropylcarbamate] yielded a Ki (HIV-1 protease; [1]) of under 0.001 µM and an IC50 (HIV-1 (strain IIIB)) of at most 0.1 µM.

For `NC(=O)c1cccc(S(=O)(=O)N(C[C@@H](O)[C@H](Cc2ccccc2)NC(=O)O[C@H]2CO[C@H]3OCC[C@H]32)OC2CCCC2)c1` [Example 173, (3R,3aS,6aR)hexahydrofuro[2,3-b]furan-3-yl N-(1S,2R)-3[[(3-carbamoylphenyl)sulfonyl](cyclopentyloxy)amino]-1-benzyl-2-hydroxypropyl carbamate], the Ki (HIV-1 protease; [1]) was under 0.001 µM and the IC50 (HIV-1 (strain IIIB)) was at most 0.1 µM.
